In ChEMBL document CHEMBL1201862, “PubChem BioAssay data set” (2004):
Activity calls are given as the source filed them.

Legend:
[1] = test system: P388/ADR; test: cells; format: functional; conditions: Mus musculus
[2] = target: Melanocortin receptor 4 (Homo sapiens, UniProt P32245); test: MC4R antagonist potency on cAMP, dose response, cell-based, TR-FRET, biased antagonists (AID 602298); format: functional;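 note: antagonist potency against agonist-stimulated cAMP production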
[3] = nonselective inhibitors of cellular cAMP signaling, dose response, counter-screen for MC4R biased antagonist project, cell-based, TR-FRET cAMP detection (AID 602305); format: functional;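 note: U2OS cells stimulated with forskolin near its EC80 as the cAMP inducer; potency is for inhibition of forskolin-stimulated cAMP signaling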
[4] = test system: P388; test: cells; format: functional; conditions: Mus musculus
[5] = test system: SN12K1; test: cells; format: functional; conditions: Homo sapiens
[6] = NIH-3T3 fibroblast cytotoxicity, dose response, cytotoxicity control for antifungal single agent project, cell-based, Alamar Blue, dry powder (AID 602188); format: functional
[7] = target: T1, Orexin receptor type 2 (Homo sapiens, UniProt O43614); test: Counterscreen assay for antagonists of the orexin 1 receptor (OX1R; HCRTR1): Fluorescence-based cell-based dose response assay for antagonists of the orexin 2 receptor (OX2R; HCRTR2), run by assay provider.; format: functional
T1 sequence (O43614 whole entry): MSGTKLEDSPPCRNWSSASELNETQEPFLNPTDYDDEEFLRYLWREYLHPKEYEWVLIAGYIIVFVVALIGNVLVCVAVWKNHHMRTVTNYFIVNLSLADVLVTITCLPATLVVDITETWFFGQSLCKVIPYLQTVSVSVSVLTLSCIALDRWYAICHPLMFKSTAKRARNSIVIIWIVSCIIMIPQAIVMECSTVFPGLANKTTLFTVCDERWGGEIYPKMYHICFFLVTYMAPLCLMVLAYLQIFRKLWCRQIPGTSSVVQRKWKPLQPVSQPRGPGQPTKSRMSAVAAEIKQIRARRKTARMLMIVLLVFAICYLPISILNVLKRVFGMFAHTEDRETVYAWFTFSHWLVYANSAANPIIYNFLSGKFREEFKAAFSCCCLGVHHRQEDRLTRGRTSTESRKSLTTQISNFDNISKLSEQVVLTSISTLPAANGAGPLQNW

[8] = Counterscreen for antagonists of the orexin 1 receptor (OX1R; HCRTR1): Fluorescence-based cell-based high throughput dose response assay to identify antagonists of the parental CHO cell line. [Related pubchem assays (depositor defined):AID434989, AID435008, AID463079, AID485270, AID492963, AID492964, AID492965, AID493232, AID504699, AID504701]; format: functional
[9] = target: T1, Orexin receptor type 2; test: Counterscreen assay for antagonists of the orexin 1 receptor (OX1R; HCRTR1): Homogeneous Time Resolved Fluorescence (HTRF)-based cell-based dose response assay for antagonists of the orexin 2 receptor (OX2R; HCRTR2), run by assay provider.; format: functional
[10] = test system: CHO-K1; test: Counterscreen for antagonists of the orexin 1 receptor (OX1R; HCRTR1): Homogeneous time resolved fluorescence (HTRF)-based cell-based dose response assay to identify antagonists of the parental CHO-K1 cell line. [Related pubchem assays (depositor defined):AID434989, AID435008, AID463079, AID485270, AID492963, AID492964, AID492965, AID493232, AID504699, AID504701]; format: functional; conditions: Cricetulus griseus;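 note: potency for inhibition of ATP-stimulated IP1 production as antagonists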
[11] = target: T2, Carboxy-terminal domain RNA polymerase II polypeptide A small phosphatase 1 (Homo sapiens, UniProt Q9GZU7); test: inhibitors of CTDSP1, concentration-response testing, biochemical assay, absorbance-based, actives from ultra-high-throughput screening (AID 540297); format: functional
T2 sequence (Q9GZU7 whole entry): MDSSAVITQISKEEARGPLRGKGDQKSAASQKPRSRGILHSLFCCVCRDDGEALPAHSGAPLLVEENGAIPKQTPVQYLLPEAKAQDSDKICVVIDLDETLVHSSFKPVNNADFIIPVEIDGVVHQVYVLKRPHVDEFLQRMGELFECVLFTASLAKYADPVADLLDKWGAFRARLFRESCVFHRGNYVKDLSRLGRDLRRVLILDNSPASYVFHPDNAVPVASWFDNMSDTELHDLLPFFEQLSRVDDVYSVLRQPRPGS

[12] = target: T3, Orexin/Hypocretin receptor type 1 (Homo sapiens, UniProt O43613); test: Homogeneous Time Resolved Fluorescence (HTRF)-based cell-based high throughput dose response assay for antagonists of the orexin 1 receptor (OX1R; HCRTR1). [Related pubchem assays (depositor defined):AID434989, AID435008, AID463079, AID485270, AID492963, AID492964, AID492965, AID493232, AID504717, AID504718]; format: functional
T3 sequence (O43613 whole entry): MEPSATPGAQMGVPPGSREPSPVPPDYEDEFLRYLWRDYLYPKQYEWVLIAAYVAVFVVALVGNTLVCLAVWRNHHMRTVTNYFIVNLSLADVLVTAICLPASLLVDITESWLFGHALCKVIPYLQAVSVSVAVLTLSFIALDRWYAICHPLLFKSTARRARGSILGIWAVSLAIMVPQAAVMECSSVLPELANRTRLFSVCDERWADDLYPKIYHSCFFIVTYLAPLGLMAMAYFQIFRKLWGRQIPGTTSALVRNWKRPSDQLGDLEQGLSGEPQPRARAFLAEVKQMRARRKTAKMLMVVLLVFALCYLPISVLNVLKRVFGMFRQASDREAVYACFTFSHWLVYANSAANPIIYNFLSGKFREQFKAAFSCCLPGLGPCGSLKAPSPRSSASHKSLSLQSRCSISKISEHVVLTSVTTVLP

[13] = target: T3, Orexin/Hypocretin receptor type 1; test: Fluorescence-based cell-based high throughput dose response assay for antagonists of the orexin 1 receptor (OX1R; HCRTR1). [Related pubchem assays (depositor defined):AID434989, AID435008, AID463079, AID485270, AID492963, AID492964, AID492965, AID493232, AID504717, AID504718]; format: functional
[14] = target: Cytochrome P450 3A4 (Homo sapiens, UniProt P08684);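 note: CYP3A4 tested as one member of a cytochrome P450 panel screen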
[15] = target: Cytochrome P450 2D6 (Homo sapiens, UniProt P10635);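 note: CYP2D6 member of a cytochrome P450 panel assay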
[16] = target: Protein Wnt-3a (Mus musculus, UniProt P27467); test: Wnt3a-driven reporter signaling inhibition, dose response, selectivity assay for Gli-SUFU antagonist project, Wnt-LIGHT cells, luminescence (AID 651570); format: functional; conditions: read-out: IC50_Mean;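 note: Wnt-LIGHT reporter cells stimulated with conditioned medium from Wnt3a-producing cells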
[17] = target: T4, Kappa-type opioid receptor (Homo sapiens, UniProt P41145); format: functional
[18] = inhibitors of intracellular T. cruzi replication, confirmation, NIH3T3 host cells, beta-gal luminescence (AID 2044); format: functional, cell-based;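 note: intracellular parasites grown in NIH/3T3 mouse fibroblasts as host cells; luminescent beta-galactosidase reporter signal from transgenic T. cruzi replicating inside host cells; inhibitors lower the luminescence signal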
[19] = target: T5, Short transient receptor potential channel 4 (Mus musculus, UniProt Q9QUQ5); test: mouse TRPC4 channel inhibitors, dose response, cell-based, HEK293 TRPC4/mu-opioid, Fluo-4 calcium (AID 434942); format: functional;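 note: potency of inhibitors blocking the TRPC4 calcium response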
T5 sequence (Q9QUQ5 whole entry): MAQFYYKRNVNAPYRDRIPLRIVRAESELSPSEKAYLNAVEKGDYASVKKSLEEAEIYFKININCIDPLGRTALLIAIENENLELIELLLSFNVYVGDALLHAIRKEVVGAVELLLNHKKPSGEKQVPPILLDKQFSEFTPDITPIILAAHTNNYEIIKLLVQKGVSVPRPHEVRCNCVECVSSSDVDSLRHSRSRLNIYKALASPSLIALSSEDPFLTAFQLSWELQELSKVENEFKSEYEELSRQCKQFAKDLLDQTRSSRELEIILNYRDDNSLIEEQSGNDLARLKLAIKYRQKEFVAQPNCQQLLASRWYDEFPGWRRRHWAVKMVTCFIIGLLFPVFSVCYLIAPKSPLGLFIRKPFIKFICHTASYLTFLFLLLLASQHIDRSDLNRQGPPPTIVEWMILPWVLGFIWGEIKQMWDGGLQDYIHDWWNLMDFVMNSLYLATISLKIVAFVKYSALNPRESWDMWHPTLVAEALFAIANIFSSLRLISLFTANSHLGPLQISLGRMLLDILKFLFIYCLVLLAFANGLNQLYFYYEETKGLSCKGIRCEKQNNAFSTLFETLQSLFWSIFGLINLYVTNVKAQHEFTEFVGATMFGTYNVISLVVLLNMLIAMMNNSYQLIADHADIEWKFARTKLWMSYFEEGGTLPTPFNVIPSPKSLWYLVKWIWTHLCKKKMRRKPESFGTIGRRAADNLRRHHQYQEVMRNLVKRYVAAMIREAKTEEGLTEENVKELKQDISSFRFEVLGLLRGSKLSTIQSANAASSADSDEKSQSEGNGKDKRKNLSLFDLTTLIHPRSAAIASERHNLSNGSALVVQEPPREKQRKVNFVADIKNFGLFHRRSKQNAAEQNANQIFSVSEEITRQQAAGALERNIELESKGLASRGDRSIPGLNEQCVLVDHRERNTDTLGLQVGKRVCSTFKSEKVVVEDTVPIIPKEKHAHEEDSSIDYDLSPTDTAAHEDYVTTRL

[20] = target: T4, Kappa-type opioid receptor; format: functional; remark: listed apart in the source
[21] = target: Mu-type opioid receptor (Homo sapiens, UniProt P35372); test: HTS Image-Based Screen for Agonists of the MOR Receptor. [Related pubchem assays (depositor defined):AID1777, AID1785, AID1786, AID2133]; format: functional;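 note: imaging of beta-arrestin GFP recruitment into spots after receptor activation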
[22] = target: T6, Delta-type opioid receptor (Homo sapiens, UniProt P41143); test: HTS Image-Based Screen for Agonists of the DOR Receptor. [Related pubchem assays (depositor defined):AID1777, AID1786, AID2133]; format: functional
[23] = target: T7, Microphthalmia-associated transcription factor (Homo sapiens, UniProt O75030); test: TRPM1 promoter luciferase signal decrease, dose response, MITF inhibitor project, cell-based, SK-MEL-5, cherry-picked, set 3 (AID 493073); format: functional
T7 sequence (O75030 whole entry): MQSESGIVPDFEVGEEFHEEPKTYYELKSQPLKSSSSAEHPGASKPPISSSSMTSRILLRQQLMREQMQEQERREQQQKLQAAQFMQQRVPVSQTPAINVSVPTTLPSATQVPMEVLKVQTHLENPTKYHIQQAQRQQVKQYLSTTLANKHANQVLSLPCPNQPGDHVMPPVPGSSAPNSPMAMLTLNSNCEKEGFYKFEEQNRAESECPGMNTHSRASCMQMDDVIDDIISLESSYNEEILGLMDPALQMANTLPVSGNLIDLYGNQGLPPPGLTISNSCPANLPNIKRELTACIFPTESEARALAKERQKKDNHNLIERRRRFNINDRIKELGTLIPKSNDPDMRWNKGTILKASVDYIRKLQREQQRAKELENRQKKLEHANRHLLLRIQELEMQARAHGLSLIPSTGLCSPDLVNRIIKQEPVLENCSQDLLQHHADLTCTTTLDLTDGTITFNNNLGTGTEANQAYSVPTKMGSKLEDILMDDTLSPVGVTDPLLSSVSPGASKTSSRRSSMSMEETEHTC

[24] = target: Glucose-6-phosphate 1-dehydrogenase (Homo sapiens, UniProt P11413); test: human G6PD enzyme inhibitors, dose response, selectivity assay for P. falciparum G6PD inhibitor project, biochemical, fluorescence (AID 504792); format: functional
[25] = cytotoxicity toward NIH3T3 fibroblasts, dose response, counter-screen, cell-based, ATP luminescence, mouse fibroblasts (AID 2010); format: functional;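 note: cells exposed to compound for about 90 hours before reading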
[26] = target: Heat shock protein HSP 90-alpha (Homo sapiens, UniProt P07900); format: functional, organism-based
[27] = target: T8, Beta-galactosidase (Escherichia coli, UniProt Q8VNN2); format: functional
[28] = target: T8, Beta-galactosidase; test: beta-galactosidase enzyme inhibitors and activators, dose response, artefact control for CCR6 antagonist project, biochemical, E. coli enzyme, set 3 (AID 504712); format: functional
[29] = target: T6, Delta-type opioid receptor; test: HTS Image-Based Screen for Antagonists of the DOR Receptor. [Related pubchem assays (depositor defined):AID1777, AID1785, AID1786, AID2133]; format: functional
[30] = target: Ras and Rab interactor 1/Tyrosine-protein kinase ABL1 (Homo sapiens, UniProt P00519+Q13671); format: functional;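 note: biochemical TR-FRET dose-response test measuring inhibition of binding between Rin1 and Abl proteins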

Melanocortin receptor 4, sequence (P32245 whole entry): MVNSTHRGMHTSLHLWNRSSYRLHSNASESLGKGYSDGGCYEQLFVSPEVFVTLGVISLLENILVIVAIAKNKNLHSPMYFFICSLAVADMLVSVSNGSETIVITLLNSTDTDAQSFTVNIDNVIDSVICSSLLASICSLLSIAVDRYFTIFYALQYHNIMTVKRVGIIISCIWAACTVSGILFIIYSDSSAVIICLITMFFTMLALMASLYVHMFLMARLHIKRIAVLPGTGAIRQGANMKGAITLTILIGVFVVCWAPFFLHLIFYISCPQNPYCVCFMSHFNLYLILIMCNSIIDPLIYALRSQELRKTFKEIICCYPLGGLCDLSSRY
T4 sequence (P41145 whole entry): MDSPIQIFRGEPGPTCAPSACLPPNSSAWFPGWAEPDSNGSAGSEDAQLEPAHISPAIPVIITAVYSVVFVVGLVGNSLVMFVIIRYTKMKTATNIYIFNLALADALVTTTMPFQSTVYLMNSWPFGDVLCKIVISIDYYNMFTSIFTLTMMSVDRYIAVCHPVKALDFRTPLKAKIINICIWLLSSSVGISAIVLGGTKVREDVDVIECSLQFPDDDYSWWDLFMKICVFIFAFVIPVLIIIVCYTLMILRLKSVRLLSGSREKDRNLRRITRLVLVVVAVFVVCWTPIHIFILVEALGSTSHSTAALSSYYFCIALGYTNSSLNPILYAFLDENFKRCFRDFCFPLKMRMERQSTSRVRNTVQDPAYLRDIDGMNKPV
T6 sequence (P41143 whole entry): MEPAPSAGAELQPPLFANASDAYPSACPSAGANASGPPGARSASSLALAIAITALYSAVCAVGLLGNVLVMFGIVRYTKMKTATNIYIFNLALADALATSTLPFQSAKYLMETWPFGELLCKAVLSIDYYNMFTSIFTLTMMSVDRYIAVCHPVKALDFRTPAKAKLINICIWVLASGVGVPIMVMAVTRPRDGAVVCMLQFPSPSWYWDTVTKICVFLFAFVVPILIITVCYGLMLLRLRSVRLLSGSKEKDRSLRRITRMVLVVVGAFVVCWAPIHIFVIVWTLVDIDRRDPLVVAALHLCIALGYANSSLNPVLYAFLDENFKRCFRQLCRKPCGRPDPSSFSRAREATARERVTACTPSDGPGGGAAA
T8 sequence (Q8VNN2 whole entry): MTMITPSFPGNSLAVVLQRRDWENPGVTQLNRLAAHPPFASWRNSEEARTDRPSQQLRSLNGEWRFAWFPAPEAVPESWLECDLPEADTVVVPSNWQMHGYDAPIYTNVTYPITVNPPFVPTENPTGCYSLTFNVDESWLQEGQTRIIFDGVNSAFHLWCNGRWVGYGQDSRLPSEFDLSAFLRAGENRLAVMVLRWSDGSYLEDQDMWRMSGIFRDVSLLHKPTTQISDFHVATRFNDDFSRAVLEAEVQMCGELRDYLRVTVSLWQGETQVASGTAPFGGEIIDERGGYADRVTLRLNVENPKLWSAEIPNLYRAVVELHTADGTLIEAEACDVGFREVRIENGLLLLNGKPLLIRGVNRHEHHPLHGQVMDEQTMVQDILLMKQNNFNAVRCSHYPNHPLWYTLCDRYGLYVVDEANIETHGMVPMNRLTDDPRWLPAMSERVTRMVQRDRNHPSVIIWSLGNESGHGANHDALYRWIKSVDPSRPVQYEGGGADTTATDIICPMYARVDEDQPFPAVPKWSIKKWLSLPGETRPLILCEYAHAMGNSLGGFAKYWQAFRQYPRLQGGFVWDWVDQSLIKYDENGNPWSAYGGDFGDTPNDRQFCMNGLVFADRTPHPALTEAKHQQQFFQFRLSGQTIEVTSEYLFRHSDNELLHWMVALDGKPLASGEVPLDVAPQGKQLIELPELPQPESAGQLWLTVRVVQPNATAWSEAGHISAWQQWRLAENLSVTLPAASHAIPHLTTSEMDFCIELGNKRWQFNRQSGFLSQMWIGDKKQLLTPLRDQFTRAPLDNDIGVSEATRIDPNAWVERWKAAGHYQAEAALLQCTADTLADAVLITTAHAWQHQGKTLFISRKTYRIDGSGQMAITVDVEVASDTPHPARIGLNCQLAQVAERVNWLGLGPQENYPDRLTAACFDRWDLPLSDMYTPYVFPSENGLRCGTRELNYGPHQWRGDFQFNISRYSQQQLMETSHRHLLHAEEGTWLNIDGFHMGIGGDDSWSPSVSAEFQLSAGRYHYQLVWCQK
Mu-type opioid receptor, sequence (P35372 whole entry): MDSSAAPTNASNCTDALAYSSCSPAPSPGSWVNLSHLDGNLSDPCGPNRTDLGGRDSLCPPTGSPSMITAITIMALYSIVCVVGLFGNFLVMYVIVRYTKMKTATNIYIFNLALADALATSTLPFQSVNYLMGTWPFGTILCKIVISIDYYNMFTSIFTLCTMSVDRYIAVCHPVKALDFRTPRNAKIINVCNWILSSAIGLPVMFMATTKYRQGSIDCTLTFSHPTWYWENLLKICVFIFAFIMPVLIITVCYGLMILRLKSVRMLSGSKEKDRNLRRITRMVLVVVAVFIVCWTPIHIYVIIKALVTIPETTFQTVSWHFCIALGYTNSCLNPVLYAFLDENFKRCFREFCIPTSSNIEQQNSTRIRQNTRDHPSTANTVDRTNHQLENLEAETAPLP
Cytochrome P450 3A4, sequence (P08684 whole entry): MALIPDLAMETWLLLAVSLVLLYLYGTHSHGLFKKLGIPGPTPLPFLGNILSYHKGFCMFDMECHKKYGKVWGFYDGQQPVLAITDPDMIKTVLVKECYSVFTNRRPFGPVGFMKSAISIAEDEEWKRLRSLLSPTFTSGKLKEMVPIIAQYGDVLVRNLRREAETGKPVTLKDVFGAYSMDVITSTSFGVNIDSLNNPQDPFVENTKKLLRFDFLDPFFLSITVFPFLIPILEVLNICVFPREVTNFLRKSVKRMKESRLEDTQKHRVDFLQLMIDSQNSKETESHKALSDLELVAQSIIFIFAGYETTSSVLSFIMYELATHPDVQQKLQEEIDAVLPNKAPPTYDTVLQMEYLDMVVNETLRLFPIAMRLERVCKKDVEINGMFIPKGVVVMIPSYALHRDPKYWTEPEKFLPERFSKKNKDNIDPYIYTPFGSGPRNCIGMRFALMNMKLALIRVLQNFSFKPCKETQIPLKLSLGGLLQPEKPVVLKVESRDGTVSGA
Cytochrome P450 2D6, sequence (P10635 whole entry): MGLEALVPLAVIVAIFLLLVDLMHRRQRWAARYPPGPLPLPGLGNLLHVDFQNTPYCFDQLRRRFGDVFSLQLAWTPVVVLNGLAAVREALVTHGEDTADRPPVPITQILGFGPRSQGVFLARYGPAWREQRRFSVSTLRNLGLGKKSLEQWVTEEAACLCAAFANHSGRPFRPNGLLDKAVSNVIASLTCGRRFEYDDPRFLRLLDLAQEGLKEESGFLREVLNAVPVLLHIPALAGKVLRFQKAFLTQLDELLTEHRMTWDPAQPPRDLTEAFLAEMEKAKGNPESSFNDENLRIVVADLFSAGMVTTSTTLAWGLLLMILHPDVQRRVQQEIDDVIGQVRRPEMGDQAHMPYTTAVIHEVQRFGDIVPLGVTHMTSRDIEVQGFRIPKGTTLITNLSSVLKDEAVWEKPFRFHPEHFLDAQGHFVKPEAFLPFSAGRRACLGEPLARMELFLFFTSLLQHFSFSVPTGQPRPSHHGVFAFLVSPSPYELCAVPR
Protein Wnt-3a, sequence (P27467 whole entry): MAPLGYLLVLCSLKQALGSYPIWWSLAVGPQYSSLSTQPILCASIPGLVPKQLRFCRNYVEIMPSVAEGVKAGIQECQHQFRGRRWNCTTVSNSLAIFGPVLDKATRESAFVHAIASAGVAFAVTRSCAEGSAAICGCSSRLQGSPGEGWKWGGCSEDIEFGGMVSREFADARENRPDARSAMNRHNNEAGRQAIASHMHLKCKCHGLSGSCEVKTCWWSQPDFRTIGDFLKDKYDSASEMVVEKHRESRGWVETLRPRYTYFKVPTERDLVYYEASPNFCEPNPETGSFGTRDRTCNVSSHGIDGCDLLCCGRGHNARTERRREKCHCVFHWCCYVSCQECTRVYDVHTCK
Glucose-6-phosphate 1-dehydrogenase, sequence (P11413 whole entry): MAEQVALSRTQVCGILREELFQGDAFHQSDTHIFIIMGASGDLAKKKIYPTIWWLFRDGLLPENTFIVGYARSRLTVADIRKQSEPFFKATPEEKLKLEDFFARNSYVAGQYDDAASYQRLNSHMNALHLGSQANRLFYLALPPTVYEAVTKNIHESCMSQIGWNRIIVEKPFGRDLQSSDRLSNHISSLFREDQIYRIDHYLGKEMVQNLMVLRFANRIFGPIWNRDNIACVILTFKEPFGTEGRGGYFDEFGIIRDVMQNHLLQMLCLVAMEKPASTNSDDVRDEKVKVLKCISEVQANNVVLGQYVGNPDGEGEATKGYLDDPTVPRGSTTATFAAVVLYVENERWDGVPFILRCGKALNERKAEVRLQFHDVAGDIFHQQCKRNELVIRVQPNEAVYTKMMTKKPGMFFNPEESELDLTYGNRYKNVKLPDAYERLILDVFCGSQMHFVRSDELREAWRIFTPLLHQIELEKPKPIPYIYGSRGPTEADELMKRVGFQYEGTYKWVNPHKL

CC(C)Cc1ccc(C(C)CC2=CCC(CN(C)C)C2=O)cc1 (configuration not stated)
GI50 [1]: 1.09 µM (active) | IC50 [2]: 8.78 µM (active) | IC50 [3]: > 64.7 µM (inactive) | GI50 [4]: 2.02 µM (inactive) | GI50 [5]: 3.33 µM (inactive)

Oc1c(CN2CCN(c3ccccc3)CC2)cc(Cl)c2cccnc12
AC50 [6]: 0.964 µM (active)

O=C(OCc1cc(=O)n2c(n1)sc1ccccc12)c1cccc(O)c1
IC50 [7]: > 88.8 µM (inactive) | IC50 [8]: 37 µM (inactive) | IC50 [9]: > 50 µM (inactive) | IC50 [10]: > 66.2 µM (inactive) | IC50 [11]: 3.87 µM (active) | IC50 [12]: 5.46 µM (active) | IC50 [13]: 5.73 µM (active)

FC(F)(F)c1ccc(N2CCN(c3cc(-c4ccccc4)nc4ncnn34)CC2)nc1
AC50 [14]: inconclusive | AC50 [15]: 11.2 µM (inconclusive) | IC50 [16]: 5.78 µM (active)

Cc1ccc(NC(=O)c2cc(N3C(=O)C=CC3=O)ccc2N2CCOCC2)cc1
IC50 [2]: 11.9 µM (inactive) | IC50 [17]: 8.25 µM (active) | EC50 [18]: 2.85 µM (active) | EC50 [19]: 5.31 µM (active) | IC50 [20]: 23.7 µM | EC50 [21]: > 32 µM (inactive) | IC50 [3]: 39 µM (inactive) | EC50 [22]: > 32 µM (inactive) | AC50 [23]: 11.6 µM (active) | IC50 [24]: 53 µM (inactive) | EC50 [25]: 6.01 µM (active) | AC50 [26]: 0.591 µM (active) | EC50 [27]: > 31.5 µM (inactive) | IC50 [28]: > 66.6 µM (inactive) | IC50 [29]: > 32 µM (inactive)

CCOC(=O)CCCCC(=O)c1[nH]c(=O)[nH]c1Cn1ccnc1
IC50 [30]: 12.8 µM (inactive)
